Columns and labels:
rat hepatocytes = details: for Substrate concentration resulting in extensive cytotoxicity / Substrate concentration that resulted in extensive cytotoxicity: rat, 24 h
Experimental: (§1) Refer to the table below for the testing concentrations. Metabolites collected from the incubation reactions were measured by LC/MS/MS analysis.
(§2) Following cell attachment, the culture medium was aspirated from each well, and replaced with pre-warmed InVitroGRO™ HI Rat Medium (added with Torpedo antibiotic mix in the confirmatory experiment) and the substrate solution at the appropriate concentration. The treated cells were returned to incubation for 24 hours. Upon completion of incubation, the medium from each well was collected into 1.7-mL vials containing ice-cold methanol and stored at nominal −80° C. (−72° C. to −88° C.) prior to LC/MS/MS analysis. Hepatocytes remaining in the wells were subjected to MTT assay to evaluate the cytotoxic potential of the substrates at the testing concentrations.
Upon collection of the reaction medium, an aliquot of 0.5 mg/mL MTT in KHB was added immediately to the remaining hepatocytes in each well and then incubated for approximately 30 minutes. Following incubation, the medium was replaced with dimethyl sulfoxide (DMSO) to dissolve the formazan. An aliquot from each well was measured for absorbance at 540 nm on a 96-well flat bottom plate with a microplate reader and DMSO for background absorbance correction.
The cytotoxic potential of the substrates to rat hepatocytes was evaluated by MTT cytotoxicity assays. The assays were performed in both the pilot and the confirmatory experiments.

[1] = molecular target: spermidine/spermine N1-acetyltransferase (SSAT) (Rattus norvegicus, UniProt Q6P9U6); assay: SSAT-mediated N-acetylation enzyme kinetics in plateable cryopreserved primary rat hepatocytes (LC/MS/MS, Lineweaver-Burk); details: for Vmax of N-acetylation by SSAT: confirmatory experiment, primary rat hepatocytes, 24-hour incubation, Lineweaver-Burk estimate
spermidine/spermine N1-acetyltransferase (SSAT), sequence (Q6P9U6 1-171): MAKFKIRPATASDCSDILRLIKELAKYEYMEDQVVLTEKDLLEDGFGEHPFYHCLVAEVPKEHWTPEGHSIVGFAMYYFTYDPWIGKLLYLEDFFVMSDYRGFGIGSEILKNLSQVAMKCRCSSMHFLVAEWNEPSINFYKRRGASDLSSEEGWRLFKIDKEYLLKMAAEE
Experimental: as §1
Immediately before use, cryopreserved primary rat hepatocytes were thawed in a water bath at 37° C. and resuspended in pre-warmed InVitroGRO™ CP Rat Medium. […] Hepatocyte concentrations were adjusted by addition with InVitroGRO™ CP Rat Medium to achieve the target plating concentration of 0.70×10^6 cells/m L. Aliquots of hepatocytes were plated (0.5 mL/well) in 24-well CellAffix culture plates and the plates were placed in an incubator maintained at 37° C. with a highly humidified atmosphere of 95% air and 5% […] for 4 hours to allow hepatocyte attachment before dosing with the selective substrate solutions.
as §2
Four LC/MS/MS assays were employed to individually quantitate the four metabolites in the incubation samples.
Enzyme kinetics was evaluated based on the enzymatic conversion of the substrate at a range of testing concentrations into their N-acetylated metabolites over a 24-hour incubation reaction time course. Metabolite formation from different testing substrate concentrations after incubation was measured by LC/MS/MS and the resulting data constructed into Lineweaver-Burk plots of the double reciprocal of reaction velocity against substrate concentrations to estimate the Km and Vmax values of SSAT-mediated N-acetylation of each substrate tested.

[2] = molecular target: SSAT in cytosolic liver fraction of transgenic mice (Mus musculus, UniProt P48026); details: read-out: Km of spermidine acetylation (literature reference); cited from earlier work
SSAT in cytosolic liver fraction of transgenic mice, sequence (P48026 whole entry): as the sequence (Q6P9U6 1-171) above, with V35I, L42Q counted along it

Row | SMILES | Cytotoxicity to rat hepatocytes (in words) (rat hepatocytes) | Substrate concentration resulting in extensive cytotoxicity (rat hepatocytes) | Substrate concentration that resulted in extensive cytotoxicity (rat hepatocytes) | Vmax of N-acetylation by SSAT [1] [pmol/min/million cells] | Km at 24 h ([1]; rat) [µM] | Km [2] [µM]
1 | NC12CC3CC(CC(C3)C1)C2 [amantadine] | Significant cytotoxicity | approximately 1140 μM | approximately 1170 μM | 0.00197 |  | 
2 | CC(N)C12CC3CC(CC(C3)C1)C2 (centres unmarked) [rimantadine] | Significant cytotoxicity | ~220 µM | ~280 µM | 0.364 | 1840 | 
3 | NCCCCNCCCN [spermidine] | No cytotoxicity |  |  | 7.21 |  | 267 ± 46
4 | Cc1cccc(C)c1NC(=O)C(C)N (centres unmarked) [tocainide] | No cytotoxicity |  |  | 0.617 |  | 

From US11441168B2, “Method for assaying the activity of spermidine/spermine N1-acetyltransferase” (BioMark Technologies Inc., priority 2011, dated 2022)
